{"source": "patent US9017692B2", "about": "“Antimicrobial agent, bacterial strain, biosynthesis, and methods of use” (priority 2011, dated 2015)", "key": {"MSSA ATCC 29213 SAU.42": {"tested_on": "MSSA ATCC 29213 SAU.42", "test": "microbe, parasite or virus in culture", "experimental": "(§1) The activity of paenibacterin against several strains of Gram-positive and Gram-negative foodborne pathogens is summarized in Table 10. The data is reported as minimum inhibitory concentrations (MIC) as an average of three replicates for paenibacterin against the various listed bacterial strains. […] MICs were determined according to the CLSI broth microdilution method (see, Clinical and Laboratory Standards Institute (CLSI). 2009. Methods for dilution antimicrobial susceptibility tests for bacteria that grow aerobically; approved standard. […]. CLSI, Wayne, Pa.). Briefly, HPLC-purified paenibacterin was dissolved in methanol and diluted to appropriate concentration with cation-adjusted Mueller-Hinton II broth (Difco). Aliquots (25 μl) of serially-diluted paenibacterin was dispensed into wells of a 96-well plate; an equal amount of 1/10 diluted overnight bacterial culture was added to wells. Plates were incubated at 35° C. for 24 h. Cell growth after incubation was examined and determined using a microtiter plate reader at 600 nm. Concentration of paenibacterin is determined based on a molecular weight of 1604 Da.\n(§2) The activity of paenibacterin was further tested against clinical isolates of the following Gram-positive bacteria: methicillin-sensitive Staphylococcus aureus (MSSA), methicillin-resistant S. aureus (MRSA), vancomycin-sensitive Enterococcus faecalis, vancomycin-resistant E. faecalis (VRE), Streptococcus pneumoniae, and laboratory derived daptomycin-resistant (DR) MSSA, MRSA, and VRE strains. The MICs were determined using the above described CLSI broth microdilution method, in which the method was performed with non-binding surface coated (NBS) 96-well plates."}, "[1]": {"tested_on": "DR-VRE from EFS.807 EFS.2731", "test": "microbe, parasite or virus in culture", "details": "EFS.2731, DR-VRE from EFS.807; NBS 96-well plates", "experimental": "as §1, §2"}, "[2]": {"tested_on": "DR-MSSA from SAU.42 SAU.278", "test": "microbe, parasite or virus in culture", "details": "SAU.278, DR-MSSA from SAU.42; NBS 96-well plates", "experimental": "as §1, §2"}, "WT ATCC 49619 SPN.31": {"tested_on": "WT ATCC 49619 SPN.31", "test": "microbe, parasite or virus in culture", "details": "ATCC 49619", "experimental": "as §1, §2"}, "MRSA ATCC 43300 SAU.399": {"tested_on": "MRSA ATCC 43300 SAU.399", "test": "microbe, parasite or virus in culture", "details": "ATCC 43300", "experimental": "as §1, §2"}, "[3]": {"tested_on": "DS-VRE ATCC 700802 EFS.807", "test": "microbe, parasite or virus in culture", "experimental": "as §1, §2"}, "WT ATCC 29212 EFS.43": {"tested_on": "WT ATCC 29212 EFS.43", "test": "microbe, parasite or virus in culture", "experimental": "as §1, §2"}, "[4]": {"tested_on": "DR-MRSA from MW2 SP SAU.1616", "test": "microbe, parasite or virus in culture", "details": "SAU.1616, DR-MRSA from MW2 SP; NBS 96-well plates", "experimental": "as §1, §2"}, "PAE.999": {"tested_on": "PAE.999", "test": "MIC, CLSI broth microdilution, Gram-negative clinical isolates", "format": "cell-based, Pseudomonas aeruginosa", "details": "Pseudomonas aeruginosa, read-out: Minimum inhibitory concentration (MIC)", "experimental": "(§3) Plates were incubated at 35° C. for 24 h.\n(§4) The activity of paenibacterin was also tested against clinical isolates of the following Gram-negative bacterial strains: four strains of the species Pseudomonas aeruginosa (PAE), three strains of the species Acinetobacter baumannii (ABA), two strains of the species Escherichia coli (ECO), and four strains of the species Klebsiella pneumoniae (KPN). Particularly, the strains of Gram-negative bacteria included polymyxin B-resistant (PMB-R) and polymyxin B-sensitive (PMB-S) strains of each above listed species. The MICs were determined using the above described CLSI broth microdilution method, in which the method was performed with both non-binding surface coated (NBS) and polystyrene (PS) 96-well plates (Tables 11 and 12, respectively). The MICs were generally lower in the NBS 96-well plates as compared to the PS 96-well plates."}, "PAE.2325": {"tested_on": "PAE.2325", "test": "MIC, CLSI broth microdilution, Gram-negative clinical isolates", "format": "cell-based, Pseudomonas aeruginosa", "details": "Pseudomonas aeruginosa, read-out: Minimum inhibitory concentration (MIC)", "experimental": "as §3, §4"}, "PAE.44": {"tested_on": "PAE.44", "test": "MIC, CLSI broth microdilution, Gram-negative clinical isolates", "format": "cell-based, Pseudomonas aeruginosa", "details": "Pseudomonas aeruginosa, non-binding surface coated (NBS) 96-well plates, read-out: Minimum inhibitory concentration (MIC)", "experimental": "as §3, §4"}, "PAE.2281": {"tested_on": "PAE.2281", "test": "MIC, CLSI broth microdilution, Gram-negative clinical isolates", "format": "cell-based, Pseudomonas aeruginosa", "details": "Pseudomonas aeruginosa, read-out: Minimum inhibitory concentration (MIC)", "experimental": "as §3, §4"}, "PMB-R, KPN.2463": {"tested_on": "PMB-R, KPN.2463", "test": "MIC, CLSI broth microdilution, Gram-negative clinical isolates", "format": "cell-based, Klebsiella pneumoniae", "experimental": "as §3, §4"}, "KPN.674": {"tested_on": "KPN.674", "test": "MIC, CLSI broth microdilution, Gram-negative clinical isolates", "format": "cell-based, Klebsiella pneumoniae", "details": "Klebsiella pneumoniae, read-out: Minimum inhibitory concentration (MIC)", "experimental": "as §3, §4"}, "KPN.2317": {"tested_on": "KPN.2317", "test": "MIC, CLSI broth microdilution, Gram-negative clinical isolates", "format": "cell-based, Klebsiella pneumoniae", "details": "for MIC: Klebsiella pneumoniae, read-out: Minimum inhibitory concentration (MIC)", "experimental": "as §3, §4"}, "PMB-S, KPN.2461": {"tested_on": "PMB-S, KPN.2461", "test": "MIC, CLSI broth microdilution, Gram-negative clinical isolates", "format": "cell-based, Klebsiella pneumoniae", "experimental": "as §3, §4"}, "ECO.2276": {"tested_on": "ECO.2276", "test": "MIC, CLSI broth microdilution, Gram-negative clinical isolates", "format": "cell-based, Escherichia coli", "details": "Escherichia coli, read-out: Minimum inhibitory concentration (MIC)", "experimental": "as §3, §4"}, "ATCC 25922 ECO.35": {"tested_on": "ATCC 25922 ECO.35", "test": "MIC, CLSI broth microdilution, Gram-negative clinical isolates", "format": "cell-based, Escherichia coli", "details": "Escherichia coli, read-out: Minimum inhibitory concentration (MIC)", "experimental": "as §3, §4"}, "ABA.1570": {"tested_on": "ABA.1570", "test": "MIC, CLSI broth microdilution, Gram-negative clinical isolates", "format": "cell-based, Acinetobacter baumannii", "details": "Acinetobacter baumannii, read-out: Minimum inhibitory concentration (MIC)", "experimental": "as §3, §4"}, "ABA.2315": {"tested_on": "ABA.2315", "test": "MIC, CLSI broth microdilution, Gram-negative clinical isolates", "format": "cell-based, Acinetobacter baumannii", "experimental": "as §3, §4"}, "ABA.2232": {"tested_on": "ABA.2232", "test": "MIC, CLSI broth microdilution, Gram-negative clinical isolates", "format": "cell-based, Acinetobacter baumannii", "details": "Acinetobacter baumannii, read-out: Minimum inhibitory concentration (MIC)", "experimental": "as §3, §4"}}, "note": "Like-named read-outs stand apart in the source and are kept apart here."}
{"smiles": "CCCCCCCCCC(=O)N[C@@H](Cc1c[nH]c2ccccc12)C(=O)N[C@H](CC(N)=O)C(=O)N[C@@H](CC(=O)O)C(=O)N[C@@H]1C(=O)NCC(=O)N[C@@H](CCCN)C(=O)N[C@@H](CC(=O)O)C(=O)N[C@H](C)C(=O)N[C@@H](CC(=O)O)C(=O)NCC(=O)N[C@H](CO)C(=O)N[C@@H]([C@H](C)CC(=O)O)C(=O)N[C@@H](CC(=O)c2ccccc2N)C(=O)O[C@@H]1C", "note": "[daptomycin]", "values": [{"measurement": "Minimum inhibitory concentration (MIC)", "setting": "MSSA ATCC 29213 SAU.42; ATCC 29213", "result": 0.5, "unit": "µg/mL"}, {"measurement": "Minimum inhibitory concentration (MIC)", "setting": "[1]", "result": ">32", "unit": "µg/mL"}, {"measurement": "Minimum inhibitory concentration (MIC)", "setting": "[2]", "result": 8, "unit": "µg/mL"}, {"measurement": "Minimum inhibitory concentration (MIC)", "setting": "WT ATCC 49619 SPN.31", "result": 0.5, "unit": "µg/mL"}, {"measurement": "Minimum inhibitory concentration (MIC)", "setting": "MRSA ATCC 43300 SAU.399", "result": 0.5, "unit": "µg/mL"}, {"measurement": "Minimum inhibitory concentration (MIC)", "setting": "[3]; ATCC 700802", "result": 1, "unit": "µg/mL"}, {"measurement": "Minimum inhibitory concentration (MIC)", "setting": "WT ATCC 29212 EFS.43; ATCC 29212", "result": 2, "unit": "µg/mL"}, {"measurement": "Minimum inhibitory concentration (MIC)", "setting": "[4]", "result": 16, "unit": "µg/mL"}]}
{"smiles": "C[C@@H](O)[C@H]1C(=O)N2C(C(=O)O)=C(S[C@@H]3CN[C@H](C(=O)N(C)C)C3)[C@H](C)[C@H]12", "note": "[meropenem #413, meropenem]", "values": [{"measurement": "MIC", "setting": "PAE.999; NBS 96-well plates", "result": "> 8", "unit": "µg/mL"}, {"measurement": "MIC", "setting": "PAE.999; PS 96-well plates", "result": "> 8", "unit": "µg/mL"}, {"measurement": "MIC", "setting": "PAE.2325; NBS 96-well plates", "result": "2 to 4", "unit": "µg/mL"}, {"measurement": "MIC", "setting": "PAE.2325; PS 96-well plates", "result": 2, "unit": "µg/mL"}, {"measurement": "MIC", "setting": "PAE.44", "result": 1, "unit": "µg/mL"}, {"measurement": "MIC", "setting": "PAE.2281; NBS 96-well plates", "result": "1 to 2", "unit": "µg/mL"}, {"measurement": "MIC", "setting": "PAE.2281; PS 96-well plates", "result": 0.5, "unit": "µg/mL"}, {"measurement": "Minimum inhibitory concentration (MIC)", "setting": "PMB-R, KPN.2463; KPN.2463, PS 96-well plates", "result": ">8", "unit": "µg/mL"}, {"measurement": "MIC", "setting": "PMB-R, KPN.2463; Klebsiella pneumoniae, KPN.2463 (PMB-R), NBS 96-well plates, read-out: Minimum inhibitory concentration (MIC)", "result": "> 8", "unit": "µg/mL"}, {"measurement": "MIC", "setting": "KPN.674; NBS 96-well plates", "result": 0.0625, "unit": "µg/mL"}, {"measurement": "MIC", "setting": "KPN.674; PS 96-well plates", "result": 0.03, "unit": "µg/mL"}, {"measurement": "MIC", "setting": "KPN.2317; NBS 96-well plates", "result": 0.0625, "unit": "µg/mL"}, {"measurement": "MIC", "setting": "KPN.2317; PS 96-well plates", "result": 0.03, "unit": "µg/mL"}, {"measurement": "Minimum inhibitory concentration (MIC)", "setting": "KPN.2317; NBS 96-well plates", "result": 0.06, "unit": "µg/mL"}, {"measurement": "Minimum inhibitory concentration (MIC)", "setting": "PMB-S, KPN.2461; KPN.2461, PS 96-well plates", "result": ">8", "unit": "µg/mL"}, {"measurement": "MIC", "setting": "PMB-S, KPN.2461; Klebsiella pneumoniae, KPN.2461 (PMB-S), NBS 96-well plates, read-out: Minimum inhibitory concentration (MIC)", "result": "> 8", "unit": "µg/mL"}, {"measurement": "MIC", "setting": "ECO.2276; NBS 96-well plates", "result": "0.03 to 0.06", "unit": "µg/mL"}, {"measurement": "MIC", "setting": "ECO.2276; PS 96-well plates", "result": 0.03, "unit": "µg/mL"}, {"measurement": "MIC", "setting": "ATCC 25922 ECO.35; ATCC25922, ECO.35 (ATCC 25922), NBS 96-well plates", "result": 0.03, "unit": "µg/mL"}, {"measurement": "MIC", "setting": "ATCC 25922 ECO.35; ATCC25922, ECO.35, PS 96-well plates", "result": 0.016, "unit": "µg/mL"}, {"measurement": "MIC", "setting": "MSSA ATCC 29213 SAU.42; Staphylococcus aureus, ATCC29213|MSSA, read-out: Minimum inhibitory concentration (MIC)", "result": 0.125, "unit": "µg/mL"}, {"measurement": "MIC", "setting": "[3]; Enterococcus faecalis, ATCC700802|VRE, read-out: Minimum inhibitory concentration (MIC)", "result": 4, "unit": "µg/mL"}, {"measurement": "MIC", "setting": "WT ATCC 29212 EFS.43; Enterococcus faecalis, ATCC29212, read-out: Minimum inhibitory concentration (MIC)", "result": 2, "unit": "µg/mL"}, {"measurement": "MIC", "setting": "ABA.1570; NBS 96-well plates", "result": 8, "unit": "µg/mL"}, {"measurement": "MIC", "setting": "ABA.1570; PS 96-well plates", "result": "> 8", "unit": "µg/mL"}, {"measurement": "MIC", "setting": "ABA.2315; Acinetobacter baumannii, NBS 96-well plates, read-out: Minimum inhibitory concentration (MIC)", "result": "> 8", "unit": "µg/mL"}, {"measurement": "Minimum inhibitory concentration (MIC)", "setting": "ABA.2315; PS 96-well plates", "result": ">8", "unit": "µg/mL"}, {"measurement": "MIC", "setting": "ABA.2232; NBS 96-well plates", "result": "0.125 to 0.25", "unit": "µg/mL"}, {"measurement": "MIC", "setting": "ABA.2232; PS 96-well plates", "result": 0.5, "unit": "µg/mL"}]}
